Earlier results in patent publication US12465589B2, “Method and composition for treating CNS disorders” (IGC Pharma IP, LLC, priority 2018, dated 2025).

What was measured:
[1] = literature reports
[2] = system: acetylcholinesterase (AChE); conditions: THC 50 micromolar
Aβ protein = Aβ protein (Homo sapiens, UniProt P05067); conditions: in vitro
AD patients = conditions: supplementation

Aβ protein, sequence (P05067 672-713 limits assumed): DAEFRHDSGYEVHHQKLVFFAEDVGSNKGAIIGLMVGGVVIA

## CCCCCc1cc(O)c2c(c1)OC(C)(C)[C@@H]1CCC(C)=C[C@@H]21 [THC, Δ9-tetrahydrocannabinol]
[1]
  side effects of ingestion: acute psychotic reactions, anxiety, impaired neuropsychological performance, impaired memory, executive functioning disorder, mitochondrial dysfunction, neuron apoptosis
[2]
  AChE-induced amyloid β-peptide (Aβ) aggregation: prevents
  inhibition of acetylcholinesterase (AChE): competitively inhibits

## COc1cc(/C=C/C(=O)CC(=O)/C=C/c2ccc(O)c(OC)c2)ccc1O [curcumin]
Aβ protein
  aggregation of Aβ: prevent the aggregation of Aβ
  binding to Aβ protein: bind to Aβ protein

## COc1ccc2[nH]cc(CCNC(C)=O)c2c1 [melatonin, N-acetyl-5-methoxytryptamine]
AD patients
  circadian rhythmicity: improve circadian rhythmicity
  memory: beneficial effects on memory
